± gives the standard deviation of the averaged measurements.
Legend:
Test in all cases: level (log10 ratio to DMSO vehicle control); higher = higher biomarker level / cell amount than vehicle control
[1] = compound: C=C(C)C(=O)OCCC(F)(F)C(F)(F)C(F)(F)C(F)(F)C(F)(C(F)(F)F)C(F)(F)F [(Perfluoro-5-methylhexyl)ethyl 2-methylprop-2-enoate]; settings: in DMSO
Method: (§1)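 BioMAP Diversity Plus panel of 12 human primary cell co-culture systems (3C, 4H, LPS, SAg, BT, BF4T, BE3C, CASM3C, HDF3CGF, KF3CT, MyoF, Mphg). Compounds were added 1 h before stimulation and left for 24 h (MyoF 48 h; BT 72 h for soluble read-outs or 6 d for IgG). Biomarkers were read by ELISA, cytotoxicity by SRB, PBMC viability and proliferation by Alamar Blue. Each well value was divided by the mean of 8 DMSO control wells on the same plate and log10 transformed; duplicate blinded samples were tested at 4 concentrations.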

[2] = compound: C=CC(F)(F)C(F)(F)C(F)(F)C(F)(F)C(F)(F)C(F)(F)C(F)(F)C(F)(F)C=C [1,8-Divinylperfluorooctane]; settings: in DMSO
Method: as §1

[3] = compound: FC(F)(F)C(F)(F)C(F)(F)C(F)(F)C(F)(F)C(F)(F)C(F)(F)C(F)(F)CCS [2-(Perfluorooctyl)ethanthiol]; settings: in DMSO
Method: as §1

[4] = compound: FC(F)C(F)(F)COCC1CO1 [((2,2,3,3-Tetrafluoropropoxy)methyl)oxirane]; settings: in DMSO
Method: as §1

[5] = compound: NCC(F)(F)C(F)(F)C(F)(F)C(F)(F)C(F)(F)C(F)(F)C(F)(F)F [1H,1H-Perfluorooctylamine]; settings: in DMSO
Method: as §1

[6] = compound: O=C(O)C(F)(F)C(F)(F)C(F)(F)C(F)(F)C(F)(F)C(F)(F)C(F)(F)C(F)F [9-H-Perfluorononanoic acid]; settings: in DMSO
Method: as §1

[7] = compound: O=C(O)C(F)(F)C(F)(F)C(F)(F)OC(F)(C(F)(F)F)C(F)(F)F [Perfluoro-4-isopropoxybutanoic acid]; settings: in DMSO
Method: as §1

[8] = compound: OCCCC(F)(F)C(F)(F)C(F)(F)C(F)(F)C(F)(F)C(F)(F)C(F)(F)F [7:3 Fluorotelomer alcohol]; settings: 6700 nM; in DMSO
Method: as §1

Test System	level (log10) ([1]; 6700 nM)	level (log10) ([1]; 20000 nM)	level (log10) ([2]; 6700 nM)	level (log10) ([2]; 20000 nM)	level (log10) ([3]; 6700 nM)	level (log10) ([3]; 20000 nM)	level (log10) ([4]; 6700 nM)	level (log10) ([4]; 20000 nM)	level (log10) ([4]; 60000 nM)	level (log10) ([5]; 6700 nM)	level (log10) ([5]; 20000 nM)	level (log10) ([5]; 60000 nM)	level (log10) ([6]; 6700 nM)	level (log10) ([6]; 20000 nM)	level (log10) ([6]; 60000 nM)	level (log10) ([7]; 6700 nM)	level (log10) ([7]; 20000 nM)	level (log10) ([7]; 60000 nM)	level (log10) [8]
KF3CT:PAI-I	-0.035 ± 0.047	-0.05 ± 0.018	0.0215 ± 0.00071	0.018 ± 0.013	-0.04	-0.0425 ± 0.023	0.004	-0.0085 ± 0.005	-0.0015 ± 0.012	-0.0025 ± 0.005	-0.001 ± 0.0014	0.003 ± 0.014	-0.0045 ± 0.0035	0.007 ± 0.0071	0.003 ± 0.0085	-0.019 ± 0.0028	-0.0265 ± 0.015	-0.0125 ± 0.018	-0.017 ± 0.025
KF3CT:SRB	-0.006 ± 0.0014	0.003 ± 0.016	-0.011 ± 0.018	-0.0235 ± 0.005	-0.0015 ± 0.0021	0.002 ± 0.0042	-0.0085 ± 0.0035	-0.0055 ± 0.0092	0.012 ± 0.034	-0.01 ± 0.011	-0.0065 ± 0.013	0.0065 ± 0.035	-0.0175 ± 0.005	-0.019 ± 0.0014	-0.032 ± 0.0042	-0.009 ± 0.0071	-0.013 ± 0.0028	-0.007 ± 0.0071	-0.002 ± 0.0071
KF3CT:TIMP-2	-0.016 ± 0.03	-0.041 ± 0.052	-0.021 ± 0.021	-0.0205 ± 0.032	-0.025 ± 0.02	-0.021 ± 0.02	-0.0135 ± 0.016	-0.0115 ± 0.019	-0.0045 ± 0.026	-0.013	-0.01 ± 0.018	-0.017 ± 0.013	-0.0055 ± 0.03	-0.01 ± 0.014	0.016 ± 0.017	-0.0105 ± 0.011	-0.005 ± 0.013	0.004 ± 0.021	-0.0005 ± 0.028
KF3CT:uPA	0.007 ± 0.0057	0.007 ± 0.0028	-0.0185 ± 0.0035	-0.0185 ± 0.028	0.006 ± 0.013	0.001 ± 0.016	0.0015 ± 0.0092	-0.0045 ± 0.032	-0.0005 ± 0.015	-0.017 ± 0.0028	-0.0135 ± 0.0078	-0.0225 ± 0.019	0.006 ± 0.024	0.003 ± 0.024	-0.0115 ± 0.00071	-0.002 ± 0.0028	0.0105 ± 0.0035	0.016 ± 0.0014	-0.0075 ± 0.0064

From the supplement of paper PMC10331698
